According to patent publication US10294202B2, “Pyrrolidinones as herbicides” (FMC Corporation, priority 2013, dated 2019):

Key:
Test in all cases: Test A pre-/postemergence herbicide test
[1] = test system: morningglory; type: in vivo, Ipomoea spp.
Source text: (§1) Seeds of plant species selected from bamyardgrass (Echinochloa crus-galli), kochia (Kochia scoparia), ragweed (common ragweed, Ambrosia elatior), ryegrass, Italian (Italian ryegrass, Lolium multiflorum), crabgrass, large (large crabgrass Digitaria sanguinalis), giant foxtail (Setaria faberii), morningglory (Ipomoea spp.), pigweed (Amaranthus retroflexus), velvetleaf (Abutilon theophrasti), wheat (Triticum aestivum), and corn (Zea mays) were planted into a blend of loam soil and sand and treated preemergence with a directed soil spray using test chemicals formulated in a non-phytotoxic solvent mixture which included a surfactant. At the same time, plants selected from these crop and weed species and also blackgrass (Alopecurus myosuroides), and galium (catchweed bedstraw, Galium aparine) were planted in pots containing the same blend of loam soil and sand and treated with postemergence applications of test chemicals formulated in the same manner. Plants ranged in height from 2 to 10 cm and were in the one- to two-leaf stage for the postemergence treatment. Treated plants and untreated controls were maintained in a greenhouse for approximately 10 days, after which time all treated plants were compared to untreated controls and visually evaluated for injury. Plant response ratings, summarized in Table A, are based on a 0 to 100 scale where 0 is no effect and 100 is complete control. A dash (-) response means no test result.

[2] = test system: velvetleaf; type: in vivo, Abutilon theophrasti
Source text: as §1

[3] = test system: corn; type: in vivo, Zea mays
Source text: as §1

[4] = test system: crabgrass, large; type: in vivo, Digitaria sanguinalis
Source text: as §1

[5] = test system: pigweed; type: in vivo, Amaranthus retroflexus; conditions: for Pigweed plant response rating: Preemergence
Source text: as §1

[6] = test system: barnyardgrass; type: in vivo, Echinochloa crus-galli
Source text: as §1

[7] = test system: giant foxtail; type: in vivo, Setaria faberii
Source text: as §1

[8] = test system: wheat; type: in vivo, Triticum aestivum
Source text: as §1

[9] = Postemergence, 125 g ai/ha, 0 to 100 scale, 0 no effect, 100 complete control
[10] = Postemergence, 500 g ai/ha, 0 to 100 scale (0 no effect, 100 complete control)
[11] = Preemergence, 125 g ai/ha, visual rating on 0 to 100 scale (0 no effect, 100 complete control)
[12] = preemergence, 500 g ai/ha, 0 to 100 scale
[13] = 125 g ai/ha, visual rating on 0 to 100 scale (0 no effect, 100 complete control)
[14] = preemergence, 500 g ai/ha, 0 to 100 scale (0 no effect, 100 complete control)
[15] = Postemergence, 1000 g ai/ha, 0 to 100 scale (0 no effect, 100 complete control)
[16] = Preemergence, 1000 g ai/ha, visual rating on 0 to 100 scale (0 no effect, 100 complete control), approx. 10 days
[17] = Postemergence, 125 g ai/ha, visual rating on 0 to 100 scale (0 no effect, 100 complete control), approx. 10 days
[18] = preemergence, 1000 g ai/ha, 0 to 100 scale
[19] = preemergence, 1000 g ai/ha, 0 to 100 scale (0 no effect, 100 complete control)

SMILES: O=C1NCC(c2ccc(Cl)cc2Cl)C1C(=O)Nc1ccccc1F (racemic) [Compound 91]
- Plant response rating, Morningglory [1, 9]: 0
- Plant response rating, Morningglory [1, 10]: 0
- Morningglory plant response rating [1, 11]: 0
- Plant response rating, Morningglory [1, 12]: 0
- Plant response rating, Velvetleaf [2, 9]: 0
- Plant response rating, Velvetleaf [2, 10]: 0
- Velvetleaf plant response rating [2, 11]: 0
- Plant response rating, Velvetleaf [2, 12]: 0
- Plant response rating, Corn [3, 9]: 0
- Plant response rating, Corn [3, 10]: 0
- Corn plant response rating [3, 11]: 0
- Plant response rating, Corn [3, 12]: 0
- Plant response rating, Crabgrass, Large [4, 9]: 30
- Plant response rating, Crabgrass, Large [4, 10]: 50
- Crabgrass, Large plant response rating [4, 11]: 40
- Plant response rating, Crabgrass, Large [4, 12]: 60
- Plant response rating, Pigweed [5, 9]: 0
- Plant response rating, Pigweed [5, 10]: 0
- Pigweed plant response rating [5, 13]: 0
- Plant response rating, Pigweed [5, 12]: 0
- Plant response rating, Barnyardgrass [6, 9]: 0
- Plant response rating, Barnyardgrass [6, 10]: 20
- Barnyardgrass plant response rating [6, 11]: 0
- Plant response rating, Barnyardgrass [6, 14]: 20
- Plant response rating, Foxtail, Giant [7, 9]: 0
- Plant response rating, Foxtail, Giant [7, 10]: 20
- Foxtail, Giant plant response rating [7, 11]: 0
- Plant response rating, Foxtail, Giant [7, 12]: 40
- Plant response rating, Wheat [8, 9]: 0
- Plant response rating, Wheat [8, 10]: 0
- Wheat plant response rating [8, 11]: 0
- Plant response rating, Wheat [8, 12]: 0

SMILES: O=C1NCC(c2ccc(F)c(F)c2)C1C(=O)Nc1ccncc1F (centres unmarked) [Compound 22]
- Plant response rating, Morningglory [1, 15]: 0
- Plant response rating, Morningglory [1, 16]: 0
- Plant response rating, Velvetleaf [2, 15]: 0
- Plant response rating, Velvetleaf [2, 16]: 0
- Plant response rating, Corn [3, 15]: 0
- Plant response rating, Corn [3, 16]: 0
- Plant response rating, Crabgrass, Large [4, 15]: 0
- Plant response rating, Crabgrass, Large [4, 16]: 70
- Plant response rating, Pigweed [5, 15]: 0
- Plant response rating, Barnyardgrass [6, 15]: 0
- Plant response rating, Barnyardgrass [6, 16]: 0
- Plant response rating, Foxtail, Giant [7, 15]: 0
- Plant response rating, Foxtail, Giant [7, 16]: 30
- Plant response rating, Wheat [8, 15]: 0
- Plant response rating, Wheat [8, 16]: 0

SMILES: C=CCN(C(=O)C1C(=O)NCC1c1ccc(F)c(F)c1)c1ccccc1[N+](=O)[O-] (centres unmarked) [Compound 266]
- Plant response rating, Morningglory [1, 17]: 20
- Plant response rating, Morningglory [1, 15]: 0
- Plant response rating, Morningglory [1, 18]: 0
- Plant response rating, Velvetleaf [2, 15]: 0
- Plant response rating, Velvetleaf [2, 18]: 0
- Plant response rating, Corn [3, 15]: 0
- Plant response rating, Corn [3, 18]: 0
- Plant response rating, Crabgrass, Large [4, 15]: 0
- Plant response rating, Crabgrass, Large [4, 18]: 0
- Plant response rating, Pigweed [5, 17]: 40
- Plant response rating, Pigweed [5, 15]: 0
- Plant response rating, Pigweed [5, 18]: 0
- Plant response rating, Barnyardgrass [6, 15]: 0
- Plant response rating, Barnyardgrass [6, 19]: 0
- Plant response rating, Foxtail, Giant [7, 15]: 0
- Plant response rating, Foxtail, Giant [7, 18]: 0
- Plant response rating, Wheat [8, 17]: 40
- Plant response rating, Wheat [8, 15]: 0
- Plant response rating, Wheat [8, 18]: 0

SMILES: O=C1NCC(c2ccccc2Cl)C1C(=O)Nc1ccccc1F (racemic) [Compound 88]
- Plant response rating, Morningglory [1, 9]: 0
- Plant response rating, Morningglory [1, 10]: 0
- Morningglory plant response rating [1, 11]: 0
- Plant response rating, Morningglory [1, 12]: 0
- Plant response rating, Velvetleaf [2, 9]: 0
- Plant response rating, Velvetleaf [2, 10]: 0
- Velvetleaf plant response rating [2, 11]: 0
- Plant response rating, Velvetleaf [2, 12]: 0
- Plant response rating, Corn [3, 9]: 0
- Plant response rating, Corn [3, 10]: 0
- Corn plant response rating [3, 11]: 0
- Plant response rating, Corn [3, 12]: 0
- Plant response rating, Crabgrass, Large [4, 9]: 0
- Plant response rating, Crabgrass, Large [4, 10]: 60
- Crabgrass, Large plant response rating [4, 11]: 40
- Plant response rating, Crabgrass, Large [4, 12]: 80
- Plant response rating, Pigweed [5, 9]: 0
- Plant response rating, Pigweed [5, 10]: 0
- Pigweed plant response rating [5, 13]: 0
- Plant response rating, Pigweed [5, 12]: 30
- Plant response rating, Barnyardgrass [6, 9]: 0
- Plant response rating, Barnyardgrass [6, 10]: 40
- Barnyardgrass plant response rating [6, 11]: 0
- Plant response rating, Barnyardgrass [6, 14]: 50
- Plant response rating, Foxtail, Giant [7, 9]: 0
- Plant response rating, Foxtail, Giant [7, 10]: 0
- Foxtail, Giant plant response rating [7, 11]: 0
- Plant response rating, Foxtail, Giant [7, 12]: 30
- Plant response rating, Wheat [8, 9]: 0
- Plant response rating, Wheat [8, 10]: 0
- Wheat plant response rating [8, 11]: 0
- Plant response rating, Wheat [8, 12]: 0

SMILES: O=C1NCC(c2ccccc2F)C1C(=O)Nc1ccccc1F (racemic) [Compound 85]
- Plant response rating, Morningglory [1, 9]: 0
- Plant response rating, Morningglory [1, 10]: 0
- Morningglory plant response rating [1, 11]: 0
- Plant response rating, Morningglory [1, 12]: 0
- Plant response rating, Velvetleaf [2, 9]: 0
- Plant response rating, Velvetleaf [2, 10]: 0
- Velvetleaf plant response rating [2, 11]: 0
- Plant response rating, Velvetleaf [2, 12]: 0
- Plant response rating, Corn [3, 9]: 0
- Plant response rating, Corn [3, 10]: 0
- Corn plant response rating [3, 11]: 0
- Plant response rating, Corn [3, 12]: 0
- Plant response rating, Crabgrass, Large [4, 9]: 0
- Plant response rating, Crabgrass, Large [4, 10]: 50
- Crabgrass, Large plant response rating [4, 11]: 30
- Plant response rating, Crabgrass, Large [4, 12]: 80
- Plant response rating, Pigweed [5, 9]: 0
- Plant response rating, Pigweed [5, 10]: 0
- Pigweed plant response rating [5, 13]: 0
- Plant response rating, Pigweed [5, 12]: 0
- Plant response rating, Barnyardgrass [6, 9]: 0
- Plant response rating, Barnyardgrass [6, 10]: 20
- Barnyardgrass plant response rating [6, 11]: 0
- Plant response rating, Barnyardgrass [6, 14]: 30
- Plant response rating, Foxtail, Giant [7, 9]: 0
- Plant response rating, Foxtail, Giant [7, 10]: 0
- Foxtail, Giant plant response rating [7, 11]: 0
- Plant response rating, Foxtail, Giant [7, 12]: 50
- Plant response rating, Wheat [8, 9]: 0
- Plant response rating, Wheat [8, 10]: 0
- Wheat plant response rating [8, 11]: 0
- Plant response rating, Wheat [8, 12]: 0

SMILES: Cn1ccnc1C1CNC(=O)C1C(=O)Nc1cccc(F)c1F (racemic) [Compound 252]
- Plant response rating, Morningglory [1, 15]: 0
- Plant response rating, Morningglory [1, 18]: 0
- Plant response rating, Velvetleaf [2, 15]: 0
- Plant response rating, Velvetleaf [2, 18]: 0
- Plant response rating, Corn [3, 15]: 0
- Plant response rating, Corn [3, 18]: 0
- Plant response rating, Crabgrass, Large [4, 15]: 0
- Plant response rating, Crabgrass, Large [4, 18]: 40
- Plant response rating, Pigweed [5, 15]: 0
- Plant response rating, Barnyardgrass [6, 15]: 0
- Plant response rating, Barnyardgrass [6, 19]: 20
- Plant response rating, Foxtail, Giant [7, 15]: 0
- Plant response rating, Foxtail, Giant [7, 18]: 20
- Plant response rating, Wheat [8, 15]: 0
- Plant response rating, Wheat [8, 18]: 0

SMILES: C#CCN(C(=O)C1C(=O)NCC1c1ccc(F)c(F)c1)c1ccccc1[N+](=O)[O-] (centres unmarked) [Compound 265]
- Plant response rating, Morningglory [1, 15]: 0
- Plant response rating, Morningglory [1, 18]: 0
- Plant response rating, Velvetleaf [2, 15]: 0
- Plant response rating, Velvetleaf [2, 18]: 0
- Plant response rating, Corn [3, 15]: 0
- Plant response rating, Corn [3, 18]: 0
- Plant response rating, Crabgrass, Large [4, 15]: 0
- Plant response rating, Crabgrass, Large [4, 18]: 0
- Plant response rating, Pigweed [5, 15]: 0
- Plant response rating, Pigweed [5, 18]: 0
- Plant response rating, Barnyardgrass [6, 15]: 0
- Plant response rating, Barnyardgrass [6, 19]: 0
- Plant response rating, Foxtail, Giant [7, 15]: 0
- Plant response rating, Foxtail, Giant [7, 18]: 0
- Plant response rating, Wheat [8, 15]: 0
- Plant response rating, Wheat [8, 18]: 0
